Laboratory results taken from article PMC7699745, “The Search for New Anticonvulsants in a Group of (2,5-Dioxopyrrolidin-1-yl)(phenyl)Acetamides with Hybrid Structure—Synthesis and In Vivo/In Vitro Studies” (International Journal of Molecular Sciences, 2020).
Read-outs that look alike come from different tables or passages of the source.

Assays:
[1] = tested on: formalin-induced nociceptive response, mice; test: Formalin test of tonic pain; format: in vivo; details: for ED50: Mus musculus, ip, i.p. 30 min before test
Experimental: AEDs are also commonly used in the treatment of neuropathic pain and other central pain conditions. Therefore, with an aim of further pharmacological characterization of compounds described herein, we decided to study their antinociceptive properties in the in vivo assays. […] At first, both aforementioned compounds were tested in the formalin-induced tonic pain model, which is recognized as a valuable screening tool. In this test, the injection of formalin into the plantar surface of the mouse paw produces specific behaviors like paw lifting, flinching, and licking. […] Moreover, it has been reported that formalin induces pathological changes that resemble those observed in nerve injury and neuropathic pain [24]. Thus, this test has been successfully used to assess the analgesic efficacy of a variety of compounds such as opioids, nonsteroidal anti-inflammatory drugs (NSAIDs), corticosteroids, and N-methyl-D-aspartate (NMDA) receptor antagonists, as well as AEDs such as carbamazepine, topiramate, or gabapentin [26, 27].
As mentioned above, we investigated the analgesic properties of two of the most promising and interesting compounds: 4 and 30.
The experimental groups consisted of 6–12 adult male Albino Swiss mice (CD-1, 18–25 g). Each animal was tested only once. Immediately after the assay, the animals were sacrificed by cervical dislocation. Behavioral measurements were observed by trained observers. The in vivo antinociceptive assays were in accordance with Polish regulations and European Union Directive of 22 September 2010 (2010/63/EU). All procedures were carried out according to the rules of the International Council on Laboratory Animal Science (ICLAS) and were approved by the Local Ethical Committee in Cracow, Poland (approval No 104/2015, 111/2016, and 179/2017). The tested substances were suspended in 1% aqueous solution of Tween-80 and were injected i.p. 30 min prior to the test. Control group animals (negative control) were administered with an appropriate amount of vehicle (Tween-80, 1% aqueous solution, i.p.) 30 min prior to the test.
(§1) The experimental in vivo procedures were previously reported for the formalin test; compounds 4 and 30 were tested in three doses—40, 80, 120 mg/kg (4), and 20, 40, 80 mg/kg (30). […] The in vivo procedure for the model of capsaicin-induced nociception was previously reported; the animals were pretreated with vehicle (10 mL/kg, negative control) and the dose–response of investigated compounds was evaluated at 40, 80, 120 mg/kg (4), and 20, 40, 80 mg/kg (30). […]
Data are presented as means ± standard error of the mean (SEM). […] Statistically significant differences between groups were calculated using one-way analysis of variance (ANOVA) and the post hoc Dunnett’s multiple comparison test or two-way analysis of variance (ANOVA). […]

[2] = tested on: capsaicin-induced nociceptive response, mice; test: Capsaicin-induced pain model; format: in vivo
Text: Capsaicin activates C polymodal fibers and enhances their firing, which contributes to subsequent hyperalgesia. The molecular mechanism of action of capsaicin is the activation of the nonselective cation channel, transient receptor potential vanilloid-1 (TRPV1), which is localized on nociceptive free nerve endings. That induces the release of proinflammatory neuropeptides such as calcitonin gene-related peptide (CGRP), vasoactive intestinal peptide (VIP), and substance P (SP). The phenomenon of the induction of tissue inflammation by the peripheral nervous system is called neurogenic inflammation, and it is involved in the development of inflammatory and neuropathic pain. AEDs such as gabapentin, topiramate, or lamotrigine decrease capsaicin-induced nocifensive behavior [25].
The experimental groups consisted of 6–12 adult male Albino Swiss mice (CD-1, 18–25 g). Each animal was tested only once. […]
as §1

CYP3A4 = molecular target: T1, CYP3A4 (Homo sapiens, UniProt P08684); test: Luminescent CYP3A4 P450-Glo assay; format: in vitro ADME; details: 1 µM
T1 construct: purchased Promega (Madison, WI, USA)
T1 sequence (P08684 whole entry): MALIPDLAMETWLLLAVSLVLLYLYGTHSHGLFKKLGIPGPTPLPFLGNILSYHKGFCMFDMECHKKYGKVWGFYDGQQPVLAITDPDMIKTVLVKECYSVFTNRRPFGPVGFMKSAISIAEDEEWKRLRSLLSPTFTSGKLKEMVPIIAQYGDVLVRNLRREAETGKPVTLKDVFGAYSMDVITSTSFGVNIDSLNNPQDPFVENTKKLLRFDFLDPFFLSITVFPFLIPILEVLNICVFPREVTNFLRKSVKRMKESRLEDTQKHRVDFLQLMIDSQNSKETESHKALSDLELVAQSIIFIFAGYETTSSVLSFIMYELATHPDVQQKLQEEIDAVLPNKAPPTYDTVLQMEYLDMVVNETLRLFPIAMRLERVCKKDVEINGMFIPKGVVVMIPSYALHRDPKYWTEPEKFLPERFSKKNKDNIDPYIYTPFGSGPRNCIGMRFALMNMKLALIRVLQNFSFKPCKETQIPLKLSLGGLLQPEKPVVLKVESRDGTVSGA

hepatoma HepG2 cells = test: Hepatotoxicity, MTS cell viability assay; format: cell-based; details: 100 µM, 72 h
Experimental: The hepatotoxicity assessment was done with use of hepatoma HepG2 cells, which were incubated for 72 h in the presence of 1–100 µM concentrations of 4, 24, and 30. The CellTiter 96® aqueous nonradioactive cell proliferation assay (MTS) purchased from Promega (Madison, WI, USA) was used for determination of cell viability. The absorbance was measured using a microplate reader EnSpire (PerkinElmer, Waltham, MA, USA) at 492 nm. The obtained results confirmed the safety of the investigated series.
These studies were performed on hepatoma HepG2 cells, according to a protocol reported previously

[3] = molecular target: T2, Cav1.2 (h) calcium ion channel (Homo sapiens, UniProt Q13936); test: Cav1.2 (h) cell-based antagonist calcium flux assay
T2 construct: host or cells: HEK-293
T2 sequence (Q13936 whole entry): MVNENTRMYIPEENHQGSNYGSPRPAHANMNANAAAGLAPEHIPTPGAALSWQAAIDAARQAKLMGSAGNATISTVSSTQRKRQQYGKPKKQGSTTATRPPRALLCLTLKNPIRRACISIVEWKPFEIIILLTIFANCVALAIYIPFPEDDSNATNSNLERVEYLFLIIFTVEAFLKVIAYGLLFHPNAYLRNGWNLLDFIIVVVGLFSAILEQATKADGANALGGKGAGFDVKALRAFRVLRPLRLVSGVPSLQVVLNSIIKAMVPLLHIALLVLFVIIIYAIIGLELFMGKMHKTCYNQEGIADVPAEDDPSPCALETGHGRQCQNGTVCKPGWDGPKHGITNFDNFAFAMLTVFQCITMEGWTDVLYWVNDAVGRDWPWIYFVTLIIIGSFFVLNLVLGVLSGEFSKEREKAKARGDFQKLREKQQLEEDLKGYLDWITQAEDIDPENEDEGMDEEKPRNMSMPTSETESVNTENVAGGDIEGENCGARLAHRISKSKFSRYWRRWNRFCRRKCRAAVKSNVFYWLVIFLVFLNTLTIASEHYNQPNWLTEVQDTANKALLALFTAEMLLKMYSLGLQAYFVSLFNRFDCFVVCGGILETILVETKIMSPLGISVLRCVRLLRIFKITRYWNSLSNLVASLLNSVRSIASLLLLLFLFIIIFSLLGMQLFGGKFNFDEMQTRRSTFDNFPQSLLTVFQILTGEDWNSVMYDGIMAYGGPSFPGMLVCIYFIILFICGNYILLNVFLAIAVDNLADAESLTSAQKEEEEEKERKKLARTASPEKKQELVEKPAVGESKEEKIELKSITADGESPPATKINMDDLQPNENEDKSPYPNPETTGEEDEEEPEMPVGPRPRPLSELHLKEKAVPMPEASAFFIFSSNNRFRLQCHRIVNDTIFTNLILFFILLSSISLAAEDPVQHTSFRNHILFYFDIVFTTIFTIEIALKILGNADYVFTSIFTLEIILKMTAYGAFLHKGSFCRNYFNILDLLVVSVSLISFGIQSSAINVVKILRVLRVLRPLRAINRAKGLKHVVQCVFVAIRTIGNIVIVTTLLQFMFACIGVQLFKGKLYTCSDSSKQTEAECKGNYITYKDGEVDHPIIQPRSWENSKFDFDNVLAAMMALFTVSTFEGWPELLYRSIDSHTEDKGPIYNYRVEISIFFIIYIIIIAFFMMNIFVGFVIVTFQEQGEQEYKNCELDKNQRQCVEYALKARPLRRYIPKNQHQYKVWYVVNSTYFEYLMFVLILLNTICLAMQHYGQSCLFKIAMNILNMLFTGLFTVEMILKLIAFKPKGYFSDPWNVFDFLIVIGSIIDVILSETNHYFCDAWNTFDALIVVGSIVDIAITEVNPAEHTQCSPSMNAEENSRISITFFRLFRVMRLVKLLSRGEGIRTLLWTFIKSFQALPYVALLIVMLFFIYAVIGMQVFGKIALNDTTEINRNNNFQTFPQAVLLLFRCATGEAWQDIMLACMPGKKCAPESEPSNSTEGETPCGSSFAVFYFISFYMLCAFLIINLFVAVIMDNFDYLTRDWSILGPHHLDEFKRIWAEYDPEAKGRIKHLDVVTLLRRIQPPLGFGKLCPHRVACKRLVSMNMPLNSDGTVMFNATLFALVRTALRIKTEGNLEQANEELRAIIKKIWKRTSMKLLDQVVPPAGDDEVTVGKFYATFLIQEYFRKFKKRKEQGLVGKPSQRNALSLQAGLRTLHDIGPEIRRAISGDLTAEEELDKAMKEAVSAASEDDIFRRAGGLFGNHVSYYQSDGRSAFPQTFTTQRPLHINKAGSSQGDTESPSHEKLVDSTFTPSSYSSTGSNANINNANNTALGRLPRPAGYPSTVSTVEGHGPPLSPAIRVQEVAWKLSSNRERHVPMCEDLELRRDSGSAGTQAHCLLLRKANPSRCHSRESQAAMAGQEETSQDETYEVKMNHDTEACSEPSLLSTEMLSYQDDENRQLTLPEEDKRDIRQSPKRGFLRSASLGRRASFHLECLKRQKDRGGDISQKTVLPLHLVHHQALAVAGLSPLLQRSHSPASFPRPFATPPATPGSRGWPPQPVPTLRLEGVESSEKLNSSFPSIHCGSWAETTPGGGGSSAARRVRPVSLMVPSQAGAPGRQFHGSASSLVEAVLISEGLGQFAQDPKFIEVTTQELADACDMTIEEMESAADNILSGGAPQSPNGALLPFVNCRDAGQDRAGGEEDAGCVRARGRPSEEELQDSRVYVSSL
T2 sequence (Q08289 whole entry partner): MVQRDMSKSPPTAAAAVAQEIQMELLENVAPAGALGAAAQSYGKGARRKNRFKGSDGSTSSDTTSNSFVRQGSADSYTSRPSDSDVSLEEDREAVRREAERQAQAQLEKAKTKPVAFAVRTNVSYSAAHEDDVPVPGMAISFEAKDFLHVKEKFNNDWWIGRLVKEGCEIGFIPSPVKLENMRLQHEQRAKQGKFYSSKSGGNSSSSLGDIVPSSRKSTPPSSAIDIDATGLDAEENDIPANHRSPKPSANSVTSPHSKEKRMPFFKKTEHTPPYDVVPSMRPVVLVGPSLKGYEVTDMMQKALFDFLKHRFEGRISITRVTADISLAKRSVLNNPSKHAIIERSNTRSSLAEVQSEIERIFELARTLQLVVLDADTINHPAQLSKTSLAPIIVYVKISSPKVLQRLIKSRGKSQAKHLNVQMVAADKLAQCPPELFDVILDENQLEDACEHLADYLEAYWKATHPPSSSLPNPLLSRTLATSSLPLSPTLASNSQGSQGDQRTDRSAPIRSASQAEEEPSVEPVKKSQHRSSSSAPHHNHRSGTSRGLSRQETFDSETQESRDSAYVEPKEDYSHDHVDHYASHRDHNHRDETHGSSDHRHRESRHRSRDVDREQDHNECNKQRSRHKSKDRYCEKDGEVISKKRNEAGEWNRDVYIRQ
T2 sequence (P54289 25-956 partner limits assumed): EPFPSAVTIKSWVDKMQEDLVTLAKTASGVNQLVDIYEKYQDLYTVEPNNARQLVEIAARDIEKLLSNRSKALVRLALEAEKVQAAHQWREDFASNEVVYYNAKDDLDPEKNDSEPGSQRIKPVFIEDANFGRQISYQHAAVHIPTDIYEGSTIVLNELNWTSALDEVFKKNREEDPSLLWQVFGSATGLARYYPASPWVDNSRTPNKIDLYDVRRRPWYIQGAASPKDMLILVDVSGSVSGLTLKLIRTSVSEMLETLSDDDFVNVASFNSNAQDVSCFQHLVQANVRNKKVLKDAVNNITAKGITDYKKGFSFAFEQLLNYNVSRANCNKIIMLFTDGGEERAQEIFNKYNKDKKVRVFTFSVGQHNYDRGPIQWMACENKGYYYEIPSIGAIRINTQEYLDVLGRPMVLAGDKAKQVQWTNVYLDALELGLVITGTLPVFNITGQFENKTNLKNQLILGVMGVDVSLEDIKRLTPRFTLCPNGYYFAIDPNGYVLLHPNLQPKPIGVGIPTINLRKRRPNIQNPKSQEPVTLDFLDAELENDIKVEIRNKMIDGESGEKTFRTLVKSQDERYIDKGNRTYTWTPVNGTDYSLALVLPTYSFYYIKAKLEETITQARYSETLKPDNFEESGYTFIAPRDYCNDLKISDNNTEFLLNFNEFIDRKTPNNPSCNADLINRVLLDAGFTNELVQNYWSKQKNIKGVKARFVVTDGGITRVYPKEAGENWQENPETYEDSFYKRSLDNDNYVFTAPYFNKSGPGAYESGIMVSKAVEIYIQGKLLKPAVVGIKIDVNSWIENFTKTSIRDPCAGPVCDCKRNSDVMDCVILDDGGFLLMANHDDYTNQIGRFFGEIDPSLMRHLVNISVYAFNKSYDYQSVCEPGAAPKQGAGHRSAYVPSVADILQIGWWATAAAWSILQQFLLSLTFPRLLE
T2 sequence (P54289 957-1103 partner limits assumed): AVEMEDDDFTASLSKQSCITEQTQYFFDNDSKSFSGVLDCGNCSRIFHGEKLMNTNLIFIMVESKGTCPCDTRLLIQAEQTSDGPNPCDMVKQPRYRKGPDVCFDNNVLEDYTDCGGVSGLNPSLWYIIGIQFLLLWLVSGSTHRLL
Experimental: Binding studies were carried out commercially in Eurofines Laboratories (Poitiers, France). The functional assays were performed in Eurofins Panlabs Discovery Services Taiwan, Ltd. (New Taipei City, Taiwan). All procedures are described elsewhere (for details, see Table S4 in Supplementary Materials).
Binding studies were carried out commercially in Eurofines Laboratories (Poitiers, France). The
functional assays were performed in Eurofins Panlabs Discovery Services Taiwan, Ltd. (New Taipei
City, Taiwan). All procedures are described elsewhere (Table S4).
Table S4. In vitro binding and functional assays. […]
Cav1.2 (h) calcium ion channel cell based antagonist calcium flux assay 16,17

[4] = phase II 15–30 min, read-out: ED50, formalin test phase II

SMILES | ED50 [1, 4] [mg/kg] | attenuation of nociceptive response, formalin test first phase ([1]; i.p., doses 40, 80, 120 mg/kg) | attenuation of nociceptive response in capsaicin-induced pain ([2]; i.p., 120 mg/kg) [%] | effect on CYP3A4 activity (CYP3A4) | ED50 ([1]; phase I 0–5 min, read-out: ED50, formalin test phase I) [mg/kg] | effect on HepG2 cells viability (hepatoma HepG2 cells) | antagonist properties in cell-based flux studies (Cav1.2) ([3]; 10 µM) | inhibition at 10 µM ([3]; HEK293, human recombinant (HEK-293 cells), read-out: % Inhibition of Control Agonist Response, Cav1.2 (h) calcium flux) [%] | ED50 ([2]; Mus musculus, ip, i.p. 30 min before test) [mg/kg]
O=C(Nc1ccccc1F)C(c1ccccc1)N1C(=O)CCC1=O (stereo not shown) [Compound 4, 2-(2,5-Dioxopyrrolidin-1-yl)-N-(2-fluorophenyl)-2-phenylacetamide] | 98.9 | statistically significant only at the highest dose of 120 mg/kg | 37.9 | – | – | – | – | – | –
O=C(NCCc1cccc(OC(F)(F)F)c1)C(c1ccccc1)N1C(=O)CCC1=O (stereo not shown) [Compound 30, 2-(2,5-Dioxopyrrolidin-1-yl)-2-phenyl-N-(3-(trifluoromethoxy)phenethyl)acetamide] | 24.8 | – | – | slightly inhibited CYP3A4 activity | 21.5 | statistically significant (p < 0.001) effect on cells viability | moderate antagonist properties | 49 | 35.3
